Measured values from ChEMBL document CHEMBL1140403, “Carbonic anhydrase inhibitors: inhibition of cytosolic/tumor-associated carbonic anhydrase isozymes I, II, and IX with benzo[b]thiophene 1,1-dioxide sulfonamides” (Bioorg Med Chem Lett, 2005).

Key:
Carbonic anhydrase 9 = Carbonic anhydrase 9 (Homo sapiens, UniProt Q16790)
Description: Inhibitory activity against catalytic domain of human cloned Carbonic anhydrase IX by the CO2 hydration method

Carbonic anhydrase 1 = Carbonic anhydrase 1 (Homo sapiens, UniProt P00915)
Description: Inhibitory activity against human cloned Carbonic anhydrase I by the CO2 hydration method

Carbonic anhydrase 2 = Carbonic anhydrase 2 (Homo sapiens, UniProt P00918)
Description: Inhibitory activity against human cloned Carbonic anhydrase II by the CO2 hydration method

Carbonic anhydrase 1, sequence (P00915 whole entry): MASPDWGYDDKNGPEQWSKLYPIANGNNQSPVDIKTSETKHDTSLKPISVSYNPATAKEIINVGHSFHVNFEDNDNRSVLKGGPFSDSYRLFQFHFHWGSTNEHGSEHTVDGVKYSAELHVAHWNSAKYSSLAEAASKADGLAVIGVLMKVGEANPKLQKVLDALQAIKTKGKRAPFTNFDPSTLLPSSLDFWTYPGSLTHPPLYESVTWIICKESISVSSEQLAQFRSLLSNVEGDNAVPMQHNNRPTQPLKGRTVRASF

SMILES	Ki (Carbonic anhydrase 9) [nM]	Ki (Carbonic anhydrase 1) [nM]	Ki (Carbonic anhydrase 2) [nM]
NS(=O)(=O)c1ccc2c(c1)S(=O)(=O)CC2	10	72	8.8
NS(=O)(=O)c1ccc2c(c1)S(=O)(=O)CC2OCc1ccccc1 (stereo not given)	2.8	138	7.9
O=S1(=O)C=Cc2ccc(S(=O)(=O)NCc3ccccc3)cc21	> 1000	> 1000	> 1000
COc1cccc(NS(=O)(=O)c2ccc3c(c2)C=CS3(=O)=O)c1	> 1000	> 1000	> 1000

The remaining molecules from weak to strong by Ki (Carbonic anhydrase 9), led by results:

Ki (Carbonic anhydrase 9) [nM]	Ki (Carbonic anhydrase 1) [nM]	Ki (Carbonic anhydrase 2) [nM]	SMILES
362	530	436	CCNS(=O)(=O)c1ccc2c(c1)S(=O)(=O)C=C2
76	493	475	O=S1(=O)C=Cc2ccc(S(=O)(=O)NCC3CC3)cc21
15	63	7.5	NS(=O)(=O)c1ccc2c(c1)S(=O)(=O)C=C2
13	75	7.4	NS(=O)(=O)c1ccc2c(c1)C=CS2(=O)=O
13	85	8.3	CC1=CS(=O)(=O)c2cc(S(N)(=O)=O)ccc21
3.1	104	6.3	CCCCOC1CS(=O)(=O)c2cc(S(N)(=O)=O)ccc21 (stereo not given)
